# Reference: patent US20030207843A1, “Treatment of drug-resistant human immunodeficiency virus infection” (priority 1999, published 2003)
# How the values were obtained:
# Assay type in all cases: cell-based
# HIV-1LAI S117T = assay: p24 reduction assay in MT-2 cells, S117T; details: Example 6, recombinant virus encoding S117T
# Protocol: (§1) Cells. MT-2 cells (AIDS Research and Reference Reagent Program, National Institute of Allergy and Infectious Diseases, National Institutes of Health) were maintained in RPMI 1640 supplemented with 10% fetal bovine serum (FBS; JRH Biosciences, Lenexa, Kans.), 10 mM HEPES buffer, 50 IU/ml penicillin and 50 μg/ml streptomycin.
# (§2) Antiviral Susceptibility Assays. The antiviral activity of each compound was determined by inoculating MT-2 cells with HIV-1LAI at a multiplicity of infection (MOI) of 0.01 TCID50/cell, followed by incubation in the presence of three-fold serial drug dilutions (3 wells per dilution) (see Mellors, et. al., Antimicrob. Agents Chemother. 39:1087-1092). Five or seven days after infection, culture supernatants were harvested, lysed with 0.5% triton-X 100 and assayed for p24 antigen concentration using a commercial ELISA assay (DuPont, NEN Products, Wilmington, Del.). The antiviral activity of the compounds is expressed as the IC50, which is the concentration required to inhibit 50% of p24 antigen production. The fold-resistance of a test virus is calculated by dividing the IC50 of the test virus by the IC50 of the HIV-1LAI control virus.
# (§3) Generation of Mutant Recombinant HIV-1. HIV-1 containing the desired mutations were generated by oligonucleotide directed mutagenesis (Altered Sites II, Promega) as previously described (Mellors, et. al., Molecular Pharm. 41:446-451). After mutagenesis, mutant RT was subcloned into the pxxHIV-1LAI cloning vector using the silent XmaI and XbaI restriction sites located at the 5′ and 3′ ends of RT. Clones were DNA sequenced to verify the presence of the desired mutation(s) and electroporated into MT-2 cells as described above to generate infectious mutant recombinant HIV-1.
# Mutant RT was generated via oligonucleotide-directed mutagenesis and ligated into the pXXHIV-1LAI cloning vector. Cloning was facilitated by the presence of two silent restriction sites at the 5′ and 3′ ends (Xma1 and Xba1, respectively) of pXXHIV-1LAI RT. Infectious mutant recombinant HIV-1 was generated by electroporating MT-2 cells with mutated pXXHIV-1LAI clones. The presence of the desired mutations was verified by DNA sequencing.
# DNA sequencing identified two mutations in RT: S117T and L214F.
# (§4) Recombinant viruses containing the mutations selected by invention compounds were also evaluated for their susceptibility to AZT, as shown in Table 8.
# [1] = test system: HIV-1LAI selected with DB-PFA, passage 18 (S117T, L214F); assay: Susceptibility of virus selected in vitro with DB-PFA
# Protocol: as §2
# Selection of Resistant Viruses. […] Viral cytopathic effects (CPE) were monitored daily. […] The passaged virus was monitored regularly for a reduction in susceptibility to the compounds by determining the EC50 relative to unpassaged HIV-1LAI (Mellors, et. al., Antimicrob. Agents Chemother. 39:1087-1092). […]
# [2] = test system: HIV-1LAI (wild type, control); assay: p24 reduction assay in MT-2 cells, wild type virus; details: Table 6; baseline virus HIV-1LAI passage 0; read-out: EC50
# Protocol: as §1
# Viruses. Stock virus was prepared by electroporating (BIO-RAD Gene Pulser®, Hercules, Calif.) MT-2 cells (1.3×10^7 cells) with 5-10 μg of plasmid DNA encoding a proviral clone of HIV-1LAI (see Nguyen, et. al., Antimicrob. Agents Chemother. 38:2409-2414, and Peden, et. al., Virology 185: 661-672.). At peak cytopathic effect (generally 5-7 days post-transfection), culture supernatants were harvested and stored at −80° C. Viral infectivity titers were determined in threefold endpoint dilution assays conducted in MT-2 cells (six wells per dilution). The 50% tissue culture infective dose (TCID50) was calculated using the Reed and Muench equation (see Reed, et. al., Am. J. Hyg. 27:493-496).
# as §2, with “[…],” for “was determined by inoculating MT-2 cells with HIV-1LAI at a multiplicity of infection (MOI) of 0.01 TCID50/cell,”
# Cultures of MT-2 cells infected with either wild type (xxLAI) or with the drug-resistant strains of HIV-1 listed above were treated with lipid analogs of PFA (B-PFA, MB-PFA, or EB-PFA). The μM concentration required to produce 50% inhibition of replication of the drug-resistant strain of HIV (EC50) was determined as shown in Table 1. Drug effects were measured by assaying p24 (a viral protein) in the culture medium.
# HIV-1LAI S117T/L214F = assay: p24 reduction assay in MT-2 cells, S117T/L214F; details: Example 6; recombinant virus encoding S117T plus L214F
# Protocol: as §1, §2, §3
# Mutant RT was generated via oligonucleotide-directed mutagenesis and ligated into the pXXHIV-1LAI cloning vector. […]
# as §4
substance,measurement,setting,value
1-O-octadecyl-propanediol-3-PFA [DB-PFA],Fold resistance,HIV-1LAI S117T,10.0 fold
same,EC50,HIV-1LAI S117T; read-out: EC50,9 µM
same,EC50,"[1]; Table 6, passage 18 (S117T, L214F)",8.97 µM
same,Fold resist.,"[1]; Table 6, passage 18, relative to passage 0",10.8
same,EC50,[2],0.83 µM
same,Fold resistance,HIV-1LAI S117T/L214F,9.7 fold
